Data: ChEMBL document CHEMBL5537196, “Discovery of KIN-3248, An Irreversible, Next Generation FGFR Inhibitor for the Treatment of Advanced Tumors Harboring FGFR2 and/or FGFR3 Gene Alterations” (J Med Chem, 2024)
Values after ≈ are worked out from the molar mass of the structure shown.

Tests used:
[1] = Half life in Sprague-Dawley rat at 5 mg/kg,iv administrated at 0.25 to 24 hrs by LC-MS/MS analysis; type: ADME, organism-based; conditions: in vivo, time 0.25-24 hrs
[2] = Total clearance in Sprague-Dawley rat at 5 mg/kg,iv administrated at 0.25 to 24 hrs by LC-MS/MS analysis; type: ADME, organism-based; conditions: in vivo, time 0.25-24 hrs
[3] = Cmax in Sprague-Dawley rat at 15 mg/kg,po administrated at 0.25 to 24 hrs by LC-MS/MS analysis; type: ADME, organism-based; conditions: in vivo, time 0.25-24 hrs
[4] = AUC (0 to 24 hrs) in Sprague-Dawley rat at 15 mg/kg,po administrated at 0.25 to 24 hrs by LC-MS/MS analysis; type: ADME, organism-based; conditions: in vivo, time 0.25-24 hrs
[5] = Oral bioavailability in Sprague-Dawley rat at 15 mg/kg administrated at 0.25 to 24 hrs by LC-MS/MS analysis; type: ADME, organism-based; conditions: in vivo, time 0.25-24 hrs
[6] = Half life in Beagle dog at 5 mg/kg,iv administrated at 0.25 to 24 hrs by LC-MS/MS analysis; type: ADME, organism-based, Canis lupus familiaris; conditions: in vivo, time 0.25-24 hrs
[7] = Total clearance in Beagle dog at 5 mg/kg,iv administrated at 0.25 to 24 hrs by LC-MS/MS analysis; type: ADME, organism-based, Canis lupus familiaris; conditions: in vivo, time 0.25-24 hrs
[8] = Cmax in Beagle dog at 15 mg/kg,po administrated at 0.25 to 24 hrs by LC-MS/MS analysis; type: ADME, organism-based, Canis lupus familiaris; conditions: in vivo, time 0.25-24 hrs
[9] = AUC (0 to 24 hrs) in Beagle dog at 15 mg/kg,po administrated at 0.25 to 24 hrs by LC-MS/MS analysis; type: ADME, organism-based, Canis lupus familiaris; conditions: in vivo, time 0.25-24 hrs
[10] = Oral bioavailability in Beagle dog at 15 mg/kg administrated at 0.25 to 24 hrs by LC-MS/MS analysis; type: ADME, organism-based, Canis lupus familiaris; conditions: in vivo, time 0.25-24 hrs
[11] = Intrinsic clearance in human liver microsomes; type: ADME, Microsome; conditions: read-out: CLH
[12] = Intrinsic clearance in human hepatocyte measured per 10^6 cells; type: ADME, cell-based; conditions: hepatocytes, read-out: CLH
[13] = Lipophilicity, logP of compound; type: physicochemical; conditions: octanol/water
[14] = Dissociation constant, pKa of the compound; type: physicochemical
[15] = Aqueous solubility of the compound at pH 7.4; type: physicochemical
[16] = Aqueous solubility of the compound at pH 2; type: physicochemical
[17] = Solubility of compound in SGF; type: ADME
[18] = Solubility of compound in FaSSIF; type: ADME
[19] = Solubility of compound in FeSSIF; type: ADME
[20] = test system: SNU-16; experiment: Antitumor activity against human SNU-16 cells xenografted in mouse assessed as inhibition of tumor growth at po administrated once daily for 3 weeks; type: functional, organism-based
[21] = test system: SNU-16; experiment: Antitumor activity against human SNU-16 cells xenografted in mouse assessed as tumor growth inhibition at 2 mg/kg,po administrated once daily for 3 weeks relative to control; type: functional; conditions: SNU-16, 504 h, read-out: TGI
[22] = test system: SNU-16; experiment: Antitumor activity against human SNU-16 cells xenografted in mouse assessed as tumor growth inhibition at 5 mg/kg,po administrated once daily for 3 weeks relative to control; type: functional; conditions: SNU-16, 504 h, read-out: TGI
[23] = test system: SNU-16; experiment: Antitumor activity against human SNU-16 cells xenografted in mouse assessed as tumor growth inhibition at 15 mg/kg,po administrated once daily for 3 weeks relative to control; type: functional; conditions: SNU-16, 504 h, read-out: TGI
[24] = Toxicity in mouse xenografted with human SNU-16 cells assessed as body weight change at 2 to 15 mg/kg,po administrated once daily for 3 weeks; type: organism-based; conditions: in vivo, 504 h, dose 2-15 mg/kg
[25] = test system: RT-112; experiment: Antitumor activity against human RT-112 cells xenografted in mouse assessed as inhibition of tumor growth at po administrated once daily for 3 weeks; type: functional, organism-based
[26] = test system: RT-112; experiment: Antitumor activity against human RT-112 cells xenografted in mouse assessed as tumor growth inhibition at 2 mg/kg,po administrated once daily for 3 weeks relative to control; type: functional; conditions: RT-112, 504 h, read-out: TGI
[27] = test system: RT-112; experiment: Antitumor activity against human RT-112 cells xenografted in mouse assessed as tumor growth inhibition at 5 mg/kg,po administrated once daily for 3 weeks relative to control; type: functional; conditions: RT-112, 504 h, read-out: TGI
[28] = test system: RT-112; experiment: Antitumor activity against human RT-112 cells xenografted in mouse assessed as tumor growth inhibition at 15 mg/kg,po administrated once daily for 3 weeks relative to control; type: functional; conditions: RT-112, 504 h, read-out: TGI
[29] = Toxicity in mouse xenografted with human RT-112 cells assessed as body weight loss at 15 mg/kg,po administrated once daily for 3 weeks; type: organism-based; conditions: in vivo, 504 h
[30] = Antitumor activity against patient derived STO357 PDX cells xenografted in mouse assessed as tumor growth inhibition at 5 mg/kg,po administrated once daily for 3 weeks relative to control; type: functional; conditions: Homo sapiens, 504 h, read-out: TGI
[31] = Toxicity in mouse xenografted with patient derived STO357 PDX cells assessed as body weight change at 5 to 15 mg/kg,po administrated once daily for 3 weeks; type: organism-based; conditions: in vivo, 504 h, dose 5-15 mg/kg
[32] = Antitumor activity against patient derived STO357 PDX cells xenografted in mouse assessed as downregulation of ERK phosphorylation at 5 mg/kg,po administration and measured after 7 hrs by MSD assay; type: functional, Homo sapiens
[33] = Antitumor activity against patient derived STO357 PDX cells xenografted in mouse assessed as downregulation of ERK phosphorylation at 15 mg/kg,po administration and measured after 7 hrs by MSD assay; type: functional, Homo sapiens
[34] = Unbound drug concentration in mouse plasma xenografted with patient derived STO357 PDX cells at 15 mg/kg,po administration and measured after 15 mins by LC-MS/MS analysis; type: ADME, organism-based; conditions: in vivo, 0.25 h
[35] = Unbound drug concentration in mouse plasma xenografted with patient derived STO357 PDX cells at 15 mg/kg,po administration and measured after 1 hr by LC-MS/MS analysis; type: ADME, organism-based; conditions: in vivo
[36] = Unbound drug concentration in mouse plasma xenografted with patient derived STO357 PDX cells at 15 mg/kg,po administration and measured after 12 hr by LC-MS/MS analysis; type: ADME, organism-based; conditions: in vivo

Question: For C=CC(=O)N1C[C@@H](n2nc(C#Cc3c(F)cc4c(ncn4C4CC4)c3F)c(C(N)=O)c2NC)C[C@@H]1COC [RESIGRATINIB], which half-life [1] is on record?
Answer: 5.46 h

Question: What about the clearance [2] of the same molecule?
Answer: 16.1 mL/min/kg

Question: What about the Cmax [3] of the same molecule?
Answer: 1490 ng/mL

Question: What about the AUC(0-t) [4] of the same molecule?
Answer: 3740 ng·h/mL

Question: What about the bioavailability [5] of the same molecule?
Answer: 24.3%

Question: What about the half-life [6] of the same molecule?
Answer: 6.89 h

Question: What about the clearance [7] of the same molecule?
Answer: 23.9 mL/min/kg

Question: What about the Cmax [8] of the same molecule?
Answer: 815 ng/mL

Question: What about the AUC(0-t) [9] of the same molecule?
Answer: 2100 ng·h/mL

Question: And the bioavailability [10]?
Answer: 17.5%

Question: And the microsomal CLint [11]?
Answer: 59.6 µL/min/mg

Question: And the hepatocyte CLint [12]?
Answer: 7.2 µL/min/1e6 cells

Question: What about the logP [13] of the same molecule?
Answer: 2.5

Question: And the pKa [14]?
Answer: 2.22

Question: What about the solubility [15] of the same molecule?
Answer: 69.7 µM (≈ 36.5 µg/mL)

Question: And the solubility [16]?
Answer: 301 µM (≈ 158 µg/mL)

Question: What about the solubility [17] of the same molecule?
Answer: 800 µg/mL (≈ 1530 µM)

Question: What about the solubility [18] of the same molecule?
Answer: 400 µg/mL (≈ 764 µM)

Question: And the solubility [19]?
Answer: 300 µg/mL (≈ 573 µM)

Question: What about the Activity [20] of the same molecule?
Answer: Dose-Dependent Effect

Question: What about the inhibition in vivo at 2 mg/kg [21] of the same molecule?
Answer: 69%

Question: And the inhibition in vivo at 5 mg/kg [22]?
Answer: 81%

Question: What about the inhibition in vivo at 15 mg/kg [23] of the same molecule?
Answer: 93%

Question: What about the Activity [24] of the same molecule?
Answer: Non-Toxic

Question: And the Activity [25]?
Answer: Dose-Dependent Effect

Question: What about the inhibition in vivo at 2 mg/kg [26] of the same molecule?
Answer: 80%

Question: And the inhibition in vivo at 5 mg/kg [27]?
Answer: 91%

Question: What about the inhibition in vivo at 15 mg/kg [28] of the same molecule?
Answer: 99%

Question: And the Activity [29]?
Answer: 5.4%

Question: What about the inhibition in vivo at 5 mg/kg [30] of the same molecule?
Answer: 90%

Question: And the Activity [31]?
Answer: Non-Toxic

Question: And the Activity [32]?
Answer: 25%

Question: And the Activity [33]?
Answer: 75%

Question: And the “Cp(f)” value [34]?
Answer: ~ 100 ng/ml

Question: What about the “Cp(f)” value [35] of the same molecule?
Answer: ~ 50 ng/ml

Question: And the “Drug uptake(free)” value [36]?
Answer: Not Active
